Legend:
[1] = molecular target: T1, Human PDE10A enzyme (Homo sapiens, UniProt Q9Y233); assay: PDE enzyme inhibition, SPA (Scintillation Proximity Assay) with [3H]cGMP; type: biochemical; conditions: [3H]cGMP substrate; for inhibition at 1 µM: compound 1 μM, read-out: Percent inhibition (1 μM); for inhibition at 10 µM: compound 10 μM, read-out: Percent inhibition (10 μM)
T1 construct: transfected with the full-length gene; His-tag; made in house; host or cells: Sf9 or COS-7 cells
Experimental: Human PDE10A enzyme was generated from Sf9 or COS-7 cells transfected with the full-length gene. Cloned enzyme was extracted from homogenized cell pellets. The extracted enzyme from sf9 cells was partially purified using His-tag affinity column. The enzyme was stored at −70° C. until use. PDE activity was measured using a SPA (Scintillation Proximity Assay) (GE Healthcare). To evaluate the inhibitory activity, 10 μL of serial diluted compounds were incubated with 20 μL of PDE enzyme in assay buffer (50 mM HEPES-NaOH, 8.3 mM MgCl2, 1.7 mM EGTA, 0.1% BSA (pH 7.4)) for 30 min. at room temperature. Final concentration of DMSO in the assay was 1 percent as compounds were tested in duplicate in 96-well half-area plates (Corning). To start the reaction, 10 μL of substrate [^3H] cGMP (25 or 50 nM; enclosed in SPA kits from GE Healthcare or purchased from PerkinElmer, respectively) was added for a final assay volume of 40 μL. After 60 min incubation at room temperature, yttrium SPA beads containing Zinc sulphate were added (20 μL at 6 mg/mL) to terminate the PDE reaction. After being settled for 60 min, assay plates were counted in a scintillation counter (PerkinElmer) to allow calculation of inhibition rate. Inhibition rate was calculated on the basis of 0% control wells with DMSO and 100% control wells without enzyme.

T1 sequence (Q9Y233 267-1055): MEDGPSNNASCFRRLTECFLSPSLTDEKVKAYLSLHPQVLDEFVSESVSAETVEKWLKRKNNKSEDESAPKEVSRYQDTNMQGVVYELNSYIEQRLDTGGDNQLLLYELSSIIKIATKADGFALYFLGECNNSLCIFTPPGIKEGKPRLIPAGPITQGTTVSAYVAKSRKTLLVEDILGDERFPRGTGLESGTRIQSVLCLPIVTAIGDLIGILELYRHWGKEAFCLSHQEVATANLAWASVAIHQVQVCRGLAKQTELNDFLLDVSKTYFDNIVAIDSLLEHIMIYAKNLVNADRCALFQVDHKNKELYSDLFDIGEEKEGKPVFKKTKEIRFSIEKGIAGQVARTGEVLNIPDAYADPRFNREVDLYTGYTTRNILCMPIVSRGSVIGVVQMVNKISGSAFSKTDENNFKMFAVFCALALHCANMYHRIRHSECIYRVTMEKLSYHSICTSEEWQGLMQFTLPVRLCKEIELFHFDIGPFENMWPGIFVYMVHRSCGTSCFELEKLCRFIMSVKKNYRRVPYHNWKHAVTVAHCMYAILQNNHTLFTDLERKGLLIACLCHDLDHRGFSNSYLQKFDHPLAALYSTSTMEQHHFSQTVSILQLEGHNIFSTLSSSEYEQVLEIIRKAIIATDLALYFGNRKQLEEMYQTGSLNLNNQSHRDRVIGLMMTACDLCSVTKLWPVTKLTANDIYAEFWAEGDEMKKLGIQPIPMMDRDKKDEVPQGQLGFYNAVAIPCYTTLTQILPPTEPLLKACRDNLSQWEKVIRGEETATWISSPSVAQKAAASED

Compound: CCn1c(=O)n(-c2ccc(Oc3nc4cccnc4n3C)cc2)c2ncc(OCC(F)(F)F)cc21 [Example 129, 1-ethyl-3-{4-[(3-methyl-3H-imidazo[4,5-b]pyridin-2-yl)oxy]phenyl}-6-(2,2,2-trifluoroethoxy)-1,3-dihydro-2H-imidazo[4,5-b]pyridin-2-one]
- inhibition at 1 µM [1]: 89%
- inhibition at 10 µM [1]: 96%
- melting point: 178 to 179 °C

Compound: CCn1c(=O)n(-c2ccc(Oc3nc4cccnc4n3C)cc2)c2ncc(OCC(F)F)cc21 [Example 128, 6-(2,2-difluoroethoxy)-1-ethyl-3-{4-[(3-methyl-3H-imidazo[4,5-b]pyridin-2-yl)oxy]phenyl}-1,3-dihydro-2H-imidazo[4,5-b]pyridin-2-one]
- inhibition at 1 µM [1]: 94%
- inhibition at 10 µM [1]: 91%
- melting point: 171 to 172 °C

Compound: Cc1ccnc2c1n(C(C)C)c(=O)n2-c1ccc(Oc2nc3cccnc3n2C)cc1 [Example 121, 7-methyl-1-(1-methylethyl)-3-{4-[(3-methyl-3H-imidazo[4,5-b]pyridin-2-yl)oxy]phenyl}-1,3-dihydro-2H-imidazo[4,5-b]pyridin-2-one]
- inhibition at 1 µM [1]: 103%
- inhibition at 10 µM [1]: 99%
- melting point: 270 to 271 °C

Compound: CCn1c(=O)n(-c2ccc(Oc3nc4ccccc4n3C)cc2)c2ncncc21 [Example 125, 7-ethyl-9-{4-[(1-methyl-1H-benzimidazol-2-yl)oxy]phenyl}-7,9-dihydro-8H-purin-8-one]
- inhibition at 1 µM [1]: 99%
- inhibition at 10 µM [1]: 101%
- melting point: 242 to 243 °C

Compound: CCn1c(=O)n(-c2ccc(Oc3nc4cccnc4n3C)cc2)c2nccc(C(F)(F)F)c21 [Example 130, 1-ethyl-3-{4-[(3-methyl-3H-imidazo[4,5-b]pyridin-2-yl)oxy]phenyl}-7-(trifluoromethyl)-1,3-dihydro-2H-imidazo[4,5-b]pyridin-2-one]
- inhibition at 1 µM [1]: 95%
- inhibition at 10 µM [1]: 98%
- melting point: 244 to 246 °C
